Assay results from the supplement of paper PMC10307832.

Key:
Assay in all cases: relative viability (nuclei count vs DMSO), 5 days (fraction); higher = more cells survive
Adavosertib + OSI-027 = compound: C=CCn1c(=O)c2cnc(Nc3ccc(N4CCN(C)CC4)cc3)nc2n1-c1cccc(C(C)(C)O)n1 [Adavosertib] + COc1cccc2cc(-c3nc([C@H]4CC[C@H](C(=O)O)CC4)n4ncnc(N)c34)[nH]c12 [OSI-027] (partner 0.5 µM)
In short: (§1)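 One day after seeding in 1536-well plates, lung cancer cell lines were dosed by pin tool. Dosing was either single-drug or a fixed anchor-drug dose plus five library-drug doses (not always all listed) in √10 steps. After 5 days, nuclei were stained in one fix-and-stain step and counted on 4× images, and relative viability is the nuclei count of treated wells over that of vehicle wells, given as the median of duplicate plates.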

Adavosertib + Linsitinib = compound: C=CCn1c(=O)c2cnc(Nc3ccc(N4CCN(C)CC4)cc3)nc2n1-c1cccc(C(C)(C)O)n1 [Adavosertib] + C[C@]1(O)C[C@@H](c2nc(-c3ccc4ccc(-c5ccccc5)nc4c3)c3c(N)nccn32)C1 [Linsitinib] (partner 1 µM)
In short: as §1

Adavosertib + Phenformin = compound: C=CCn1c(=O)c2cnc(Nc3ccc(N4CCN(C)CC4)cc3)nc2n1-c1cccc(C(C)(C)O)n1 [Adavosertib] + N=C(N)NC(=N)NCCc1ccccc1 [Phenformin] (partner 250 µM)
In short: as §1

Nelarabine + Luminespib = compound: COc1nc(N)nc2c1ncn2[C@@H]1O[C@H](CO)[C@@H](O)[C@@H]1O [Nelarabine] + CCNC(=O)c1noc(-c2cc(C(C)C)c(O)cc2O)c1-c1ccc(CN2CCOCC2)cc1 [Luminespib] (partner 0.01 µM)
In short: as §1

| Cell Line | relative viability (Adavosertib + OSI-027; first compound 0.01 µM) | relative viability (Adavosertib + OSI-027; first compound 0.03162 µM) | relative viability (Adavosertib + OSI-027; first compound 0.1 µM) | relative viability (Adavosertib + OSI-027; first compound 0.3162 µM) | relative viability (Adavosertib + Linsitinib; first compound 0.01 µM) | relative viability (Adavosertib + Linsitinib; first compound 0.03162 µM) | relative viability (Adavosertib + Linsitinib; first compound 0.1 µM) | relative viability (Adavosertib + Linsitinib; first compound 0.3162 µM) | relative viability (Adavosertib + Phenformin; first compound 0.01 µM) | relative viability (Adavosertib + Phenformin; first compound 0.03162 µM) | relative viability (Adavosertib + Phenformin; first compound 0.1 µM) | relative viability (Adavosertib + Phenformin; first compound 0.3162 µM) | relative viability (Nelarabine + Luminespib; first compound 0.01 µM) | relative viability (Nelarabine + Luminespib; first compound 0.03162 µM) | relative viability (Nelarabine + Luminespib; first compound 0.1 µM) | relative viability (Nelarabine + Luminespib; first compound 0.3162 µM) | relative viability (Nelarabine + Luminespib; first compound 1 µM) |
| --- | --- | --- | --- | --- | --- | --- | --- | --- | --- | --- | --- | --- | --- | --- | --- | --- | --- |
| NCI-H520 | 0.298 | 0.262 | 0.212 | 0.224 | 0.883 | 0.794 | 1.11 | 0.874 | 0.667 | 0.547 | 0.657 | 0.757 | 0.252 | 0.249 | 0.184 | 0.27 | 0.218 |
| NCI-H1734 | 0.608 | 0.638 | 0.604 | 0.377 | 0.992 | 0.953 | 0.916 | 0.938 | 0.411 | 0.367 | 0.374 | 0.264 | 0.193 | 0.161 | 0.193 | 0.209 | 0.187 |
| NCI-H2009 | 0.698 | 0.644 | 0.651 | 0.366 | 1.23 | 1.24 | 1.24 | 1.2 | 0.486 | 0.551 | 0.496 | 0.427 | 1.16 | 1.05 | 1.02 | 1.07 | 1.05 |
| NCI-H1993 | 0.559 | 0.537 | 0.638 | 0.573 | 0.769 | 0.793 | 0.797 | 0.749 | 0.527 | 0.537 | 0.475 | 0.589 | 0.861 | 0.721 | 0.917 | 0.965 | 0.798 |
